# Data: patent publication US4801612A, “Method of inhibiting inflammatory response” (Regents of the University of California, priority 1986, dated 1989)
# Key:
# [1] = tested on: rat hind paw; experiment: Heat-induced paw edema and protein extravasation (Evans blue), hind paw in 58° C. water for 5 min.; type: in vivo
# Procedure: Male albino rats weighing 200 to 280 g were anesthetized with sodium pentobarbital, 60 mg/kg i.p., and a right jugular vein cannulated for drug injections. Human/rat CRF (at various dosages described below) or saline, and Evans blue dye, 50 mg/kg, were injected intravenously 10 and 3 min., respectively, before immersion of the hind paw in 48° C. or 58° C. water for 5 min. The frequency of paw withdrawal from the water was then counted.
# (§1) At the end of the exposure period, the animals were sacrificed and the dorsal skin, between the calcaneal process and phalanges, was removed from both paws, weighed, and each placed in 4 ml of formamide for 3 days at room temperature. The extracted Evans blue was quantified colorimetrically at 600 nm with readings from the untreated paw skin used as the blank values.
# Protein extravasation was measured by injecting a dye into a blood compartment of the animal. The dye binds to blood proteins and when the permeability of the tissue is increased by the heat, the dye leaks into the skin of the paw. The skin of the paw was excised, the dye extracted, and the amount of dye in the skin was measured to provide an index of the skin permeability changes that accompany the heat damage. […] In a manner analogous to that described above for administration of CRF, sauvagine was administered and paws of the anesthetized recipients exposed to water at 58° C. Saline was administered to a control group. The dose of sauvagine was 5 μg/kg given i.v. 5 min. before paw immersion.
# In addition, other groups of rats were administered eithe rmorphine sulfate or dexamethasone, and groups of rats were administered saline as controls.
# [2] = tested on: rat hind paw; experiment: Heat-induced paw edema and protein extravasation, hind paw in 48° C. water for 5 min.; type: in vivo; details: sauvagine 5 μg/kg i.v. 5 min. before
# Procedure: Male albino rats weighing 200 to 280 g were anesthetized with sodium pentobarbital, 60 mg/kg i.p., and a right jugular vein cannulated for drug injections. […] The frequency of paw withdrawal from the water was then counted. Leakage of Evans blue dye into the paw skin becomes visible within 2 min. At water temperatures of 58° C., the average dye content was 364±17 μg/paw for rats receiving saline.
# as §1
# FIG. 3 illustrates the inhibition by CRF of heat-induced tissue edema, as measured by changes in skin weight. When the paw of an untreated, anesthetized rat is placed in warm water (48° C.) for 5 min., the paw swells and this paw edema can be measured simply by weighing the heated paw skin and comparing its weight to the contralateral, unheated paw skin. If just saline (that is, isotonic salt water) is injected as the control procedure, the percent increase in weight (with respect to unheated paw) is 72%.
# [3] = Mean arterial blood pressure (MAP); type: in vivo, rat; details: s.c. 60 min. before electrical stimulation of the saphenous nerve
# Procedure: For injections of drugs into the brain, a 21-gauge guide cannula was stereotaxically implanted into the lateral ventricle and a 28-gauge internal cannula coupled to a Hamilton microsyringe was used to deliver a 5-μl volume of drug solution to the brain. The site of injection was verified by injections of 0.5% solutions of methylene blue into the same cannula. In some experiments, blood pressure was measured from a cannulated carotid artery coupled to a Narcobiosystems strain gauge, cardiotachometer and polygraph. Mean arterial blood pressure (MAP) was calculated as 1/3 pulse pressure plus diastolic pressure.
# As has been known, CRF and related peptides produce hypotension in anesthetized and unanesthetized animals. […] Neither does the inflammation inhibition of the present invention appear to have any associaton with the hypotensive properties of CRF and its analogs.
# [4] = 0.94 mg/kg i.v., 20 min. before exposure
# [5] = 3.75 mg/kg i.v., 20 min. before exposure
# [6] = 0.005 mg/kg i.v., 5 min. before exposure
# [7] = Table I, sheep CRF at 0.168 mg/kg i.v., sauvagine at 5 μg/kg i.v.
# [8] = 3.0 mg/kg i.v., 5 min. before exposure
# [9] = 0.50 mg/kg i.v., 5 min. before exposure
molecule,measurement,setting,value
dynorphin (1-13),reduction of edema (in words),[1]; 940 μg/kg,did not
same,reduction of protein extravasation (in words),[1]; 940 μg/kg,did not
same,% Weight Increase,[1]; [4],194 ± 6%
same,Dye μg/paw,[1]; [4],411 ± 15 μg/paw
same,reduction of edema (in words),[1]; 3750 μg/kg i.v.,did reduce edema
same,reduction of protein extravasation (in words),[1]; 3750 μg/kg i.v.,did reduce edema and protein extravasation
same,% Weight Increase,[1]; [5],87 ± 17%
same,Dye μg/paw,[1]; [5],223 ± 37 μg/paw
sauvagine,dye increase,[2],13.7 ± 3.5 μg/paw
same,paw skin weight increase,[2],4.9%+2.0
same,% Weight Increase,[1]; [6],51 ± 11%
same,Dye μg/paw,[1]; [6],86 ± 18 μg/paw
same,reduction of edema relative to saline,[1]; [7],about comparable to the sheep CRF at 168 μg/kg i.v. in reducing edema
same,reduction of protein extravasation relative to saline,[1]; [7],even more effective in reducing protein extravasation
"CC[C@H](C)[C@H](NC(=O)[C@@H](NC(=O)[C@H](CCC(=O)O)NC(=O)[C@H](CCSC)NC(=O)[C@H](CC(C)C)NC(=O)[C@H](CCCCN)NC(=O)[C@H](CCCNC(=N)N)NC(=O)[C@H](CC(N)=O)NC(=O)[C@H](CO)NC(=O)[C@H](Cc1c[nH]cn1)NC(=O)[C@H](C)NC(=O)[C@H](CCC(N)=O)NC(=O)[C@H](CCC(N)=O)NC(=O)[C@H](C)NC(=O)[C@H](CC(C)C)NC(=O)[C@H](CCC(N)=O)NC(=O)[C@H](CCC(=O)O)NC(=O)[C@H](C)NC(=O)[C@H](CCCNC(=N)N)NC(=O)[C@H](C)NC(=O)[C@H](CCSC)NC(=O)[C@H](CCC(=O)O)NC(=O)[C@H](CC(C)C)NC(=O)[C@@H](NC(=O)[C@H](CCC(=O)O)NC(=O)[C@H](CCCNC(=N)N)NC(=O)[C@H](CC(C)C)NC(=O)[C@H](CC(C)C)NC(=O)[C@H](Cc1c[nH]cn1)NC(=O)[C@H](Cc1ccccc1)NC(=O)[C@@H](NC(=O)[C@H](CC(C)C)NC(=O)[C@H](CC(=O)O)NC(=O)[C@H](CC(C)C)NC(=O)[C@H](CO)NC(=O)[C@@H](NC(=O)[C@@H]1CCCN1C(=O)[C@@H]1CCCN1C(=O)[C@H](CCC(=O)O)NC(=O)[C@H](CCC(=O)O)NC(=O)[C@@H](N)CO)[C@@H](C)CC)[C@@H](C)O)C(C)C)[C@@H](C)CC)C(N)=O [rCRF, Corticotropin Releasing Factor]",effect on mean arterial pressure,[3],did not lower mean arterial pressure
"CN1CC[C@]23c4c5ccc(O)c4O[C@H]2[C@@H](O)C=C[C@H]3[C@H]1C5.O=S(=O)(O)O [morphine SO4, morphine sulfate, reference compound]",% Weight Increase,[1]; [8],157 ± 12%
same,Dye μg/paw,[1]; [8],290 ± 36 μg/paw
"C[C@@H]1C[C@H]2[C@@H]3CCC4=CC(=O)C=C[C@]4(C)[C@@]3(F)[C@@H](O)C[C@]2(C)[C@@]1(O)C(=O)CO [dexamethasone, reference compound]",% Weight Increase,[1]; [9],170 ± 14%
same,Dye μg/paw,[1]; [9],375 ± 23 μg/paw
same,inhibition of edema (in words),[1]; doses of Table I,neither morphine nor dexamethasone inhibits either edema
same,inhibition of protein extravasation / dye leakage (in words),[1]; doses of Table I,neither morphine nor dexamethasone inhibits
